Experimental data from patent US8461328B2, “Tricyclic heterocyclic compounds, compositions and methods of use thereof” (Genentech, Inc., priority 2010, dated 2013).

Columns and labels:
Type in all cases: biochemical
JAK2 = target: T1, JAK2 (Homo sapiens, UniProt O60674); assay: JAK2 inhibition (Table 4); settings: read-out: JAK2 Ki
T1 construct: made in house; host or cells: SF9 insect cells (baculovirus)

JAK3 = target: T2, JAK3 (Homo sapiens, UniProt P52333); assay: JAK3 inhibition (Table 4); settings: read-out: JAK3 Ki
T2 construct: made in house; host or cells: SF9 insect cells (baculovirus)
T2 sequence (P52333 783-1124): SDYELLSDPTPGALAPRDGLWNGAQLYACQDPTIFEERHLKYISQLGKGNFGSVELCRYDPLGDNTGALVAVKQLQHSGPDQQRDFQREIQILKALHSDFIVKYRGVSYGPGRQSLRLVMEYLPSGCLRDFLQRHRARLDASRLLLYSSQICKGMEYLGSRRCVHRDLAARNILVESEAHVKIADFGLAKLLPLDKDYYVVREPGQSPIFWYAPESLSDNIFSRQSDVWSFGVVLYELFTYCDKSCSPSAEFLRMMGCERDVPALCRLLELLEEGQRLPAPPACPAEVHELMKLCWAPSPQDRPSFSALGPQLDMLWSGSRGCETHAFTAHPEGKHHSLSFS

TYK2 = target: T3, TYK2 (Homo sapiens, UniProt P29597); assay: TYK2 inhibition (Table 4)
T3 construct: made in house; host or cells: SF9 insect cells (baculovirus)
T3 sequence (P29597 873-1187): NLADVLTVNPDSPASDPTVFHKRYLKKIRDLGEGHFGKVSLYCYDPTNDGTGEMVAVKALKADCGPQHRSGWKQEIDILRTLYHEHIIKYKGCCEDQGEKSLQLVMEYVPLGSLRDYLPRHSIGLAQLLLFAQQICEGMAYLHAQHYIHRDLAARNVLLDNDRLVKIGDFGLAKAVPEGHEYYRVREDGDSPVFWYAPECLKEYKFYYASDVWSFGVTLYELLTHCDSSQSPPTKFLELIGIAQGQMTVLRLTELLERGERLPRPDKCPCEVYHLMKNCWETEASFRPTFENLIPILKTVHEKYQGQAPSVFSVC

JAK1 = target: T4, JAK1 (Homo sapiens, UniProt P23458); assay: JAK1 inhibition (Table 4); settings: read-out: JAK1 Ki
T4 construct: made in house; host or cells: SF9 insect cells (baculovirus)
T4 sequence (P23458 852-1154): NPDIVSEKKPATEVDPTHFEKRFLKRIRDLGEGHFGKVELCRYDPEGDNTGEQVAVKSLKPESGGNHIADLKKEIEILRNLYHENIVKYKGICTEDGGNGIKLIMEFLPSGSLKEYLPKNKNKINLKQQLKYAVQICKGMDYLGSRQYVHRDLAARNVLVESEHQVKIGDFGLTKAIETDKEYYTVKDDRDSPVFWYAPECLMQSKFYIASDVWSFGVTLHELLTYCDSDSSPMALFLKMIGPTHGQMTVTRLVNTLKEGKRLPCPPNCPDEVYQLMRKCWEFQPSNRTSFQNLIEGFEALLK

T1 sequence (O60674 812-1132): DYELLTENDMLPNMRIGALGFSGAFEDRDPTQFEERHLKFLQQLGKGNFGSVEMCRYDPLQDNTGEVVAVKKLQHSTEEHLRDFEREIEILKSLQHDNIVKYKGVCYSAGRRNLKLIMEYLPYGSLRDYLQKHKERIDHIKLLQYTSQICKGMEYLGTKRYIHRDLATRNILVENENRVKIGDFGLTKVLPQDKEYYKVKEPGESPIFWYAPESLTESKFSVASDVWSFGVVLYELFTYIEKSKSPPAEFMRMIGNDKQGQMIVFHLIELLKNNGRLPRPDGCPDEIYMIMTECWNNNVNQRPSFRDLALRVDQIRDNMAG

| Compound | Ki (JAK2) [µM] | Ki (JAK3) [µM] | Ki (TYK2) [µM] | Ki (JAK1) [µM] |
| --- | --- | --- | --- | --- |
| N#CCCN1CCC(n2c(Cn3cccn3)nc3cnc4[nH]ccc4c32)CC1 [Example 205, 3-[4-(2-Pyrazol-1-ylmethyl-6H-1,2,3,5,6-tetraaza-as-indacen-1-yl)-piperidin-1-yl]-propionitrile] | 0.0233 | 0.0326 | 0.0865 | 0.00642 |
| CC(=O)NCc1nc2cnc3[nH]ccc3c2n1C1CCNCC1 [Example 207, N-(1-Piperidin-4-yl-1,6-dihydro-1,2,3,5,6-tetraaza-as-indacen-2-ylmethyl)-acetamide] | 1.87 | 3.01 | 1.21 | 0.0781 |
| Cn1nccc1C(=O)NCc1nc2cnc3[nH]ccc3c2n1C1CCN(CCC#N)CC1 [Example 209, 2-Methyl-2H-pyrazole-3-carboxylic acid {1-[1-(2-cyano-ethyl)-piperidin-4-yl]-1,6-dihydro-1,2,3,5,6-tetraaza-as-indacen-2-ylmethyl}-amide] | 0.0176 | 0.0306 | 0.0666 | 0.00217 |
| Cc1nc2cnc3[nH]ccc3c2n1C1CCS(=O)(=O)CC1 [Example 210, 1-(1,1-Dioxo-hexahydro-1-thiopyran-4-yl)-2-methyl-1,6-dihydro-1,2,3,5,6-tetraaza-as-indacene] | 0.642 | 0.645 | 0.514 | 0.147 |
| CS(=O)(=O)Nc1ccc(N2CCC(n3cnc4cnc5[nH]ccc5c43)CC2)nc1 [Example 211, N-[4-(6H-1,2,3,5,6-Tetraaza-as-indacen-1-yl)-3,4,5,6-tetrahydro-2H-[1,2]bipyridinyl-5′-yl]-methanesulfonamide] | 0.0222 | 0.133 | 0.0614 | 0.007 |
| FCCN1CCC(n2cnc3cnc4[nH]ccc4c32)CC1 [Example 212, 1-[1-(2-Fluoro-ethyl)-piperidin-4-yl]-1,6-dihydro-1,2,3,5,6-tetraaza-as-indacene] | 0.00321 | 0.059 | 0.0116 | 0.00217 |
| CC(C)N[C@H]1CC[C@H](n2cnc3cnc4[nH]ccc4c32)CC1 [Example 214, Isopropyl-[4-(6H-1,2,3,5,6-tetraaza-as-indacen-1-yl)-cyclohexyl]-amine] | 0.0439 | 0.303 | 0.0825 | 0.00564 |
| CC(C)CC(=O)N[C@H]1CC[C@H](n2cnc3cnc4[nH]ccc4c32)CC1 [Example 215, 3-Methyl-N-[4-(6H-1,2,3,5,6-tetraaza-as-indacen-1-yl)-cyclohexyl]-butyramide] | 0.00788 | 0.0559 | 0.0927 | 0.00189 |
| O=C(Cc1nc2cnc3[nH]ccc3c2n1C1CCN(Cc2ccccc2)CC1)N1CCC(F)(F)CC1 [Example 217, 2-[1-(1-Benzyl-piperidin-4-yl)-1,6-dihydro-1,3,5,6-tetraaza-as-indacen-2-yl)-1-(4,4-difluoro-piperidin-1-yl)-ethanone] | 0.0487 | 0.00679 | 0.608 | 0.0036 |
| O=C(N[C@H]1CC[C@H](n2cnc3cnc4[nH]ccc4c32)CC1)c1ccccc1 [Example 218, N-[4-(6H-1,3,5,6-Tetraaza-as-indacen-1-yl)-cyclohexyl]-benzamide] | 0.00607 | 0.0764 | 0.0339 | 0.00679 |
| O=C(CC1CC1)N1CCC[C@@H](n2cnc3cnc4[nH]ccc4c32)C1 [Example 220, 2-Cyclopropyl-1-[(R)-3-(6H-1,3,5,6-tetraaza-as-indacen-1-yl)-piperidin-1-yl]-ethanone] | 0.00743 | 0.0283 | 0.0293 | 0.00331 |
| N#CC1(C(=O)N2CCC[C@@H](n3cnc4cnc5[nH]ccc5c43)C2)CC1 [Example 221, 1-[(R)-3-(6H-1,3,5,6-Tetraaza-as-indacen-1-yl)-piperidine-1-carbonyl]-cyclopropanecarbonitrile] | 0.00392 | 0.00812 | 0.00937 | 0.00252 |
| O=C(Cc1ccccc1)N1CCC[C@@H](n2cnc3cnc4[nH]ccc4c32)C1 [Example 222, 2-Phenyl-1-[(R)-3-(6H-1,3,5,6-tetraaza-as-indacen-1-yl)-piperidin-1-yl]-ethanone] | 0.0291 | 0.0481 | 0.555 | 0.0138 |
| CC(C)c1nc2cnc3[nH]ccc3c2n1C1CCN(Cc2ccccc2)CC1 [Example 223, 1-(1-Benzyl-piperidin-4-yl)-2-isopropyl-1,6-dihydro-1,3,5,6-tetraaza-as-indacene] | 0.0244 | 0.00811 | 1.47 | 0.00374 |
| CC(C)Cc1nc2cnc3[nH]ccc3c2n1C1CCN(Cc2ccccc2)CC1 [Example 224, 1-(1-Benzyl-piperidin-4-yl)-2-isobutyl-1,6-dihydro-1,3,5,6-tetraaza-as-indacene] | 0.0592 | 0.0206 | 1.98 | 0.0142 |
| O=C(CN1CCC[C@@H](n2cnc3cnc4[nH]ccc4c32)C1)c1ccccc1 [Example 225, 1-Phenyl-2-[(R)-3-(6H-1,3,5,6-tetraaza-as-indacen-1-yl)-piperidin-1-yl]-ethanone] | 0.127 | 0.118 | 0.817 | 0.0596 |
| CC1(C)CC1C(=O)N1CCC[C@@H](n2cnc3cnc4[nH]ccc4c32)C1 (stereo partly drawn) [Example 226, (2,2-Dimethyl-cyclopropyl)-[(R)-3-(6H-1,3,5,6-tetraaza-as-indacen-1-yl)-piperidin-1-yl]-methanone] | 0.0181 | 0.0785 | 0.0821 | 0.0162 |
| CC1(C(=O)N2CCC[C@@H](n3cnc4cnc5[nH]ccc5c43)C2)CC1 [Example 227, (1-Methyl-cyclopropyl)-[(R)-3-(6H-1,3,5,6-tetraaza-as-indacen-1-yl)-piperidin-1-yl]-methanone] | 0.00316 | 0.083 | 0.0125 | 0.00641 |
| O=C(N1CCC[C@@H](n2cnc3cnc4[nH]ccc4c32)C1)C1(C(F)(F)F)CC1 [Example 228, [(R)-3-(6H-1,3,5,6-tetraaza-as-indacen-1-yl)-piperidin-1-yl]-(1-trifluoromethyl-cyclopropyl)-methanone] | 0.00599 | 0.118 | 0.0434 | 0.0158 |
| c1cc2c(ncc3nnn(C4CCNCC4)c32)[nH]1 [Example 231] | 0.395 | 1.14 | 1.03 | 0.0866 |
| N#CCCN1CCC(n2nnc3cnc4[nH]ccc4c32)CC1 [Example 232, 3-[4-(6H-1,2,3,5,6-Pentaaza-as-indacen-1-yl)-piperidin-1-yl]-propionitrile] | 0.00335 | 0.0534 | 0.0193 | 0.00203 |
| CS(=O)(=O)N1CCC(n2nnc3cnc4[nH]ccc4c32)CC1 [Example 233, 1-(1-Methanesulfonyl-piperidin-4-yl)-1,6-dihydro-1,2,3,5,6-pentaaza-as-indacene] | 0.00784 | 0.25 | 0.0771 | 0.00496 |
| c1ccc(CCN2CCC[C@@H](n3cnc4cnc5[nH]ccc5c43)C2)cc1 [Example 234, 1-((R)-1-Phenthyl-piperidin-3-yl)-1,6-dihydro-1,3,5,6-tetraaza-as-indacene] | 0.179 | 0.132 | 1.76 | 0.0633 |
| OCc1nc2cnc3[nH]ccc3c2n1C1CCNCC1 [Example 236, (1-Piperidin-4-yl-1,6-dihydro-1,3,5,6-tetraaza-as-indacen-2-yl)-methanol] | 0.126 | 0.128 | 0.0615 | 0.00766 |
| Cc1nc2cnc3[nH]ccc3c2n1[C@@H]1CCCN(Cc2ccccc2)C1 [Example 238, (R)-1-(1-Benzyl-piperidin-3-yl)-2-methyl-1,6-dihydro-1,3,5,6-tetraaza-as-indacene] | 0.026 | 0.0852 | 0.171 | 0.0293 |
| N#CCCN1CCC(n2c(CO)nc3cnc4[nH]ccc4c32)CC1 [Example 239, 3-[4-(2-Hydroxymethyl-6H-1,3,5,6-tetraaza-as-indacen-1-yl)-piperidin-1-yl]-propionitrile] | 0.0051 | 0.0104 | 0.00739 | 0.00153 |
| N#CCCN1CCC(n2c(CC(=O)N3CCC(F)(F)CC3)nc3cnc4[nH]ccc4c32)CC1 [Example 240, 3-(4-{2-[2-(4,4-Difloro-piperidin-1-yl)-2-oxo-ethyl]-6H-1,3,5,6-tetraaza-as-indacen-1-yl)-piperidin-1-yl]-propionitrile] | 0.056 | 0.00735 | 0.0727 | 0.00692 |
| CC(C)(C)OC(=O)N1CCC[C@@H]1C(=O)N1CCC(n2cnc3cnc4[nH]ccc4c32)CC1 [Example 242, (R)-2-[4-(6H-1,3,5,6-Tetraaza-as-indacen-1-yl)-piperidine-1-carbonyl]-pyrrolidine-1-carboxylic acid tert-butyl ester] | 0.311 | 4.06 | 2.56 | 0.217 |
| NC(=O)Cc1nc2cnc3[nH]ccc3c2n1C1CCN(Cc2ccccc2)CC1 [Example 245, 2-[1-(1-Benzyl-piperidin-4-yl)-1,6-dihydro-1,3,5,6-tetraaza-as-indacen-2-yl]-acetamide] | 0.0431 | 0.0194 | 0.468 | 0.00984 |
